Tests used:
[1] = tested on: cch-evoked bronchoconstriction; experiment: Experimental bronchospasm (carbachol-induced bronchoconstriction, Konzett & Roessler); type: in vivo, Male CD Sprague Dawley rats; details: for inhibition in vivo at 0.01 mg/kg: dose 10 μg/Kg intratracheal
Description: Male CD Sprague Dawley rats (220-250 g) were purchased from Charles River Laboratories Italy (Calco, Lecco). Prior to use animals were acclimated for at least 5 days 20 to the local vivarium conditions (room temperature: 20-24° C.; relative humidity: 40-70%), having free access to standard rat chow and softened tap water. All the procedures were performed in animal operating rooms according to ethical guidelines for the conduct of animal research (D. L.vo 116/92).
Rats were anaesthetized with a combination of anesthetics (Zoletil 20 mg/kg+Xylazine 5 mg/kg, ip) for the i.t. administration. A laryngoscope was moved forward into the mouth to visualize the trachea and guide the insertion of the tip of a custom-made small diameter cannula directly into the trachea and located 1-2 mm above the bifurcation.
In order to assess the residual inhibitory activity of test compounds 1 hour after their administration, rats were surgically prepared. Body temperature was kept constant at 37° C. by a heated blanket.
The trachea was cannulated and the lungs were ventilated artificially with a constant volume ventilator (rodent ventilator mod. 7025, Ugo Basile, Comerio, Varese, Italy) at a frequency of 80 strokes/min and at a tidal volume of 10 ml/kg. To avoid spontaneous breathing, the animals were injected intravenously (i.v.) with pancuronium bromide (2 mg/kg).
Bronchoconstriction was induced by the i.v. injection of carbachol (cch) 80 μg/kg. In control experiments, repeated injections of this dose produced reproducible short-lasting (1-2 min duration) bronchospasms. Bronchoconstriction, quantified as a reduction of tidal volume, was evaluated according to the method described by Konzett & Roessler (1). Systemic blood pressure and changes in airway resistance were monitored with a digital pressure transducer.
After stabilisation of artificial breathing and blood pressure, animals were injected (i.v.) with cch every 3 min, until 3 stable and reproducible basal responses were obtained. […] The effect of test compounds was 15 expressed as % inhibition of cch-evoked bronchoconstriction in time-matched, vehicle-treated, animals (controls).
Tested compounds were dissolved in dH2O and 1% Tween-80 or 0,001% HCl and further diluted to target concentrations. Tested compounds were instilled locally into the trachea in a volume of 125 μl.
All data are presented as mean±s.e.mean. The % inhibition of experimental bronchospasm was calculated comparing the drug-treated with the vehicle-treated control animals. Data analysis was performed using GraphPad Prism software.

PKA = PKA (Homo sapiens, UniProt P17612); experiment: In vitro inhibitory activity assay for PKA (ADP-Glo), reported as selectivity ratio vs ROCK2; type: biochemical; details: Ki value for PKA divided by Ki value of ROCK2
Description: The effectiveness of compounds of the present invention to inhibit PKA activity can be determined in a 10 μl assay containing 40 mM Tris pH7.5, 20 mM MgCl2 0.1 mg/ml BSA, 50 μM DTT and 260 μM peptide substrate (kemptide) using an ADP-Glo kit (Promega). Compounds were dissolved in DMSO such that the final concentration of DMSO was 1% in the assay. All reactions/incubations are performed at 25° C. Compound and PKA enzyme (6 μl) were mixed and incubated for 30 mins. Reactions were initiated by addition of ATP (4 μl ) such that the final concentration of ATP in the assay was 10 μM. After a 30 minute incubation 10 μl of ADP-Glo Reagent was added and after a further 1 hour incubation 20 μl of Kinase Detection Buffer was added and the mixture incubated for a further 45 minutes. The luminescent signal was measured on a luminometer. […] Compounds were tested in dose-response format and the inhibition of kinase activity was calculated at each concentration of compound. To determine the IC50 (concentration of compound required to inhibit 50% of the enzyme activity) data were fit to a plot of % inhibition vs Logio compound concentration using a sigmoidal fit with a variable slope and fixing the maximum to 100% and the minimum to 0%. To determine the Ki values the Cheng-Prusoff equation was utilized (Ki=IC50/(1+[S]/Km).
In vitro inhibitory activities for PKA were reported as selectivity ratio vs. ROCK-2.

Rho kinase 1 (ROCK1) = Rho kinase 1 (ROCK1) (Homo sapiens, UniProt Q13464); experiment: In vitro inhibitory activity assay ROCK1 (ADP-Glo); type: biochemical; details: ATP 200 μM, Cheng-Prusoff from IC50; read-out: ROCK 1 (Ki, range of activity)
Sequence of Rho kinase 1 (ROCK1) (Q13464 whole entry): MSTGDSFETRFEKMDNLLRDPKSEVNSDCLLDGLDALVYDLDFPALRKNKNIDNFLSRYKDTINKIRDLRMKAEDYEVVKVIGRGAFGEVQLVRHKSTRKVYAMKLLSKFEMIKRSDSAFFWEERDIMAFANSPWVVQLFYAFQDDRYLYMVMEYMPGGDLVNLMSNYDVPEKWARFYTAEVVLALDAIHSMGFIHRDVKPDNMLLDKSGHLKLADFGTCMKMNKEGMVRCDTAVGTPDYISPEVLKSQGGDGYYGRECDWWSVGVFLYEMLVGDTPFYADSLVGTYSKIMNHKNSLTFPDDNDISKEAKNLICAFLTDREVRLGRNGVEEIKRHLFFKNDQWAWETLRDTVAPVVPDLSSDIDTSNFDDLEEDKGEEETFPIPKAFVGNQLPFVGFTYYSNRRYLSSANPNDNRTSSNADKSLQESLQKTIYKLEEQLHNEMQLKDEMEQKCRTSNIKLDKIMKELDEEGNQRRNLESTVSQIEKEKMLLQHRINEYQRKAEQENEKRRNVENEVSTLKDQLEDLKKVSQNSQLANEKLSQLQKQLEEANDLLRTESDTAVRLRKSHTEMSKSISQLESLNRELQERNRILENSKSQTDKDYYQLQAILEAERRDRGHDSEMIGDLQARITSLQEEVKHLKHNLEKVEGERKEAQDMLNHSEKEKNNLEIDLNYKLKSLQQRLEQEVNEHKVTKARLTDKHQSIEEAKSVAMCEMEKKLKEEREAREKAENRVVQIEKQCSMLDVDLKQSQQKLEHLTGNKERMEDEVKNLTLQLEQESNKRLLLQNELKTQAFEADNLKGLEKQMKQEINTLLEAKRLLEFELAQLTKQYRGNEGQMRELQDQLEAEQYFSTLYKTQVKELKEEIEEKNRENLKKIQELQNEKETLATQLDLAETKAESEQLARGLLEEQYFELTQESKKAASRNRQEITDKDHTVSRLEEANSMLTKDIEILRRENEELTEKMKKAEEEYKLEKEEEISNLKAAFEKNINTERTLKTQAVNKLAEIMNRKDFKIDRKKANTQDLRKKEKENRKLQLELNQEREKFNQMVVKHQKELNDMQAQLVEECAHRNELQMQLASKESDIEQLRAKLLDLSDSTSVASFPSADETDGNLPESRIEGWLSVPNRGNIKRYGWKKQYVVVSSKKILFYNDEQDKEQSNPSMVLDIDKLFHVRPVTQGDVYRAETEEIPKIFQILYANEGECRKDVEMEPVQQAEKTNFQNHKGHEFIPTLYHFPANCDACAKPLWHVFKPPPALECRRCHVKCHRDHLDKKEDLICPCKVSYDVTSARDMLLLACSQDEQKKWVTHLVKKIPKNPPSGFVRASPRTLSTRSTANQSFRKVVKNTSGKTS
Description: (§1) The effectiveness of compounds of the present invention to inhibit Rho kinase activity can be determined in a 10 μl assay containing 40 mM Tris pH7.5, 20 mM MgCl2 0.1 mg/mL BSA, 50 μM DTT and 2.5 μM peptide substrate (Myelin Basic Protein) using an ADP-Glo kit (Promega). Compounds were dissolved in DMSO such that the final concentration of DMSO was 1% in the assay. All reactions/incubations are performed at 25° C. Compound (2 ul) and either Rho kinase 1 or 2 (4 μl) were mixed and incubated for 30 mins. Reactions were initiated by addition of ATP (4μ1) such that the final concentration of ATP in the assay was 200 μM. After a 1 hour incubation 10 μl of ADP-Glo Reagent was added and after a further 1 hour incubation 20 ul of Kinase Detection Buffer was added and the mixture incubated for a further 45 minutes. The luminescent signal was measured on a luminometer. […] Compounds were tested in dose-response format and the inhibition of kinase activity was calculated at each concentration of compound. To determine the IC50 (concentration of compound required to inhibit 50% of the enzyme activity) data were fit to a plot of % inhibition vs Log10 compound concentration using a sigmoidal fit with a variable slope and fixing the maximum to 100% and the minimum to 0%. To determine the Ki values the Cheng-Prusoff equation was utilized (Ki=IC50/(1+[S]/Km).

Rho kinase 2 (ROCK2) = Rho kinase 2 (ROCK2) (Homo sapiens, UniProt O75116); experiment: In vitro inhibitory activity assay ROCK2 (ADP-Glo); type: biochemical; details: ATP 200 μM, Cheng-Prusoff from IC50; read-out: ROCK2 (Ki, range of activity)
Sequence of Rho kinase 2 (ROCK2) (O75116 whole entry): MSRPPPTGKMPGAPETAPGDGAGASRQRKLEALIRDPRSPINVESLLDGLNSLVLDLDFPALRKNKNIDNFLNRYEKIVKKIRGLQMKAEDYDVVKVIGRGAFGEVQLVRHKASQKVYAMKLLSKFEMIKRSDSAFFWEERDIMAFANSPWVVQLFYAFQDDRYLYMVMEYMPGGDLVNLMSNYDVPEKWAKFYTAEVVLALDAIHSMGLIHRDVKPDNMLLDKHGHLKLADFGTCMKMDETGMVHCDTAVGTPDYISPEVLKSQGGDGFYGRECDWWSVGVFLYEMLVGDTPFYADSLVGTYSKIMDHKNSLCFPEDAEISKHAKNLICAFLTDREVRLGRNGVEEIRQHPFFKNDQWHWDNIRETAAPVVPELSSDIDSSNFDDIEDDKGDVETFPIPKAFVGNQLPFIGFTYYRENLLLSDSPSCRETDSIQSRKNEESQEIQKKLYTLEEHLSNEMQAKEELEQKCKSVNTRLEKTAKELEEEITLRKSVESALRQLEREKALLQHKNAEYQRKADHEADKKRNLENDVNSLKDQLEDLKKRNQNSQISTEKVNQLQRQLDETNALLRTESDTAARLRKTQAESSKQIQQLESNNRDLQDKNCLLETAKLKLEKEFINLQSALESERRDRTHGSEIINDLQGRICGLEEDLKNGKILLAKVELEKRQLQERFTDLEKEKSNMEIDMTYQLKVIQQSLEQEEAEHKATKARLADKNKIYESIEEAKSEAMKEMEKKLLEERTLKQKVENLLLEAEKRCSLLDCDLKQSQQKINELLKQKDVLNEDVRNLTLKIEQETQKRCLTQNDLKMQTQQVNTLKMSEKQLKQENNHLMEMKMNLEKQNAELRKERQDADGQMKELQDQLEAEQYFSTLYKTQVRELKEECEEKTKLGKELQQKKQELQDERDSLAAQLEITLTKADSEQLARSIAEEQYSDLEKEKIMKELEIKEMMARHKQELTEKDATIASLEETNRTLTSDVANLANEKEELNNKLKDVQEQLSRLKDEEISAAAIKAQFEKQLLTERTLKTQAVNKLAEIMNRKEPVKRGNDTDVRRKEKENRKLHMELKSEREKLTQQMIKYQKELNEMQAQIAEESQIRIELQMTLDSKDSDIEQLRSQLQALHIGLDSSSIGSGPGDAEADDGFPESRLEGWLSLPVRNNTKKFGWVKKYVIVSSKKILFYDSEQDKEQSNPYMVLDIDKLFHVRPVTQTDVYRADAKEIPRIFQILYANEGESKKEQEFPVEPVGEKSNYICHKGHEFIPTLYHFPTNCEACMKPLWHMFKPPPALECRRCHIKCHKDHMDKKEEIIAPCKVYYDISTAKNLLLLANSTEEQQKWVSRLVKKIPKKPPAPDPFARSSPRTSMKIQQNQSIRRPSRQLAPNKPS
Description: as §1

[2] = iv, rat, 1 hour after administration, carbachol 80 μg/kg i.v., read-out: Inhibition % (±s.e. mean) of cch-evoked bronchoconstriction

Compound | inhibition in vivo at 0.01 mg/kg [1, 2] [%] | activity as bronchodilator (in words) ([1]; rat bronchospasm test, internal comparator vs compounds with bulky moiety W) | Ratio (PKA/ROCK2) (PKA) | Ki (Rho kinase 1 (ROCK1)) [nM] | Ki (Rho kinase 2 (ROCK2)) [nM] | inhibition in vivo at 0.003 mg/kg ([1]; iv, rat, dose 3 μg/Kg intratracheal, 1 hour after administration, carbachol 80 μg/kg i.v., read-out: Inhibition % (±s.e. mean) of cch-evoked bronchoconstriction) [%]
COc1ccc(NC(=O)c2cccc(CNc3ncc(-c4ccnc(N)n4)c4c3CCO4)c2)nc1 [Example 51, 3-(((7-(2-Aminopyrimidin-4-yl)-2,3-dihydrofuro[3,2-c]pyridin-4-yl)amino)methyl)-N-(5-methoxypyridin-2-yl)benzamide] | 3.1 ± 14.8 | markedly lower activity as bronchodilator | *** (ratio≥10) | ≤ 3 | ≤ 3 | 
CNCCNc1ccc(NC(=O)c2cccc(CNc3ncc(-c4ccnc(N)n4)c4c3CCO4)c2)nc1 [Example 70, 3-(((7-(2-aminopyrimidin-4-yl)-2,3-dihydrofuro[3,2-c]pyridin-4-yl)amino)methyl)-N-(5-((2-(methylamino)ethyl)amino)pyridin-2-yl)benzamide] | 62.2 ± 7 |  | *** (ratio≥10) | ≤ 3 | ≤ 3 | 
Nc1nccc(-c2cnc(NCc3cccc(C(=O)Nc4ccc(OC[C@]5(F)CCNC5)cn4)c3)c3c2OCC3)n1 [Example 79, (S)-3-(((7-(2-aminopyrimidin-4-yl)-2,3-dihydrofuro[3,2-c]pyridin-4-yl)amino)methyl)-N-(5-((3-fluoropyrrolidin-3-yl)methoxy)pyridin-2-yl)benzamide] | 58 ± 6 |  | *** (ratio≥10) | ≤ 3 | ≤ 3 | 
CN1CCN(Cc2ccc(NC(=O)c3cccc(CNc4ncc(-c5ccnc(N)n5)c5c4CCO5)c3)nc2)CC1 [Example 78, 3-(((7-(2-aminopyrimidin-4-yl)-2,3-dihydrofuro[3,2-c]pyridin-4-yl)amino)methyl)-N-(5-((4-methylpiperazin-1-yl)methyl)pyridin-2-yl)benzamide] | 68.8 ± 8.6 |  | *** (ratio≥10) | ≤ 3 | ≤ 3 | 
CN(C)CCNc1ccc(NC(=O)c2cccc(CNc3ncc(-c4ccnc(N)n4)c4c3CCO4)c2)nc1 [Example 77, 3-(((7-(2-aminopyrimidin-4-yl)-2,3-dihydrofuro[3,2-c]pyridin-4-yl)amino)methyl)-N-(5-((2-(dimethylamino)ethyl)amino)pyridin-2-yl)benzamide] |  |  | *** (ratio≥10) | ≤ 3 | ≤ 3 | 79
CN(C)CCN(C)c1ccc(NC(=O)c2cccc(CNc3ncc(-c4ccnc(N)n4)c4c3CCO4)c2)nc1 [Example 75, 3-(((7-(2-aminopyrimidin-4-yl)-2,3-dihydrofuro[3,2-c]pyridin-4-yl)amino)methyl)-N-(5-((2-(dimethylamino)ethyl)(methyl)amino)pyridin-2-yl)benzamide] |  |  | *** (ratio≥10) | ≤ 3 | ≤ 3 | 
CN1CCC(C(=O)N2CCN(c3ccc(NC(=O)c4cccc(CNc5ncc(-c6ccnc(N)n6)c6c5CCO6)c4)nc3)CC2)CC1 [Example 65, 3-(((7-(2-aminopyrimidin-4-yl)-2,3-dihydrofuro[3,2-c]pyridin-4-yl)amino)methyl)-N-(5-(4-(1-methylpiperidine-4-carbonyl)piperazin-1-yl)pyridin-2-yl)benzamide] |  |  | *** (ratio≥10) | ≤ 3 | ≤ 3 | 
Nc1nccc(-c2cnc(NCc3ccccc3)c3c2OCC3)n1 [Example C, 7-(2-Aminopyrimidin-4-yl)-N-benzyl-2,3-dihydrofuro[3,2-c]pyridin-4-amine, reference compound] |  |  | * (ratio<5) | > 30 | 3 to 30 | 
Nc1nccc(-c2cnc(NCc3cccc(C(=O)Nc4ccc(N5C[C@H]6C[C@@H]5CN6)cn4)c3)c3c2OCC3)n1 [Example 68, N-(5-((1R,4R)-2,5-diazabicyclo[2.2.1]heptan-2-yl)pyridin-2-yl)-3-(((7-(2-aminopyrimidin-4-yl)-2,3-dihydrofuro[3,2-c]pyridin-4-yl)amino)methyl)benzamide] |  |  | *** (ratio≥10) | ≤ 3 | ≤ 3 | 
Nc1nccc(-c2cnc(NCc3cccc(C(=O)Nc4ccc(N5CCCNCC5)cn4)c3)c3c2OCC3)n1 [Example 72, N-(5-(1,4-diazepan-1-yl)pyridin-2-yl)-3-(((7-(2-aminopyrimidin-4-yl)-2,3-dihydrofuro[3,2-c]pyridin-4-yl)amino)methyl)benzamide] |  |  | *** (ratio≥10) | ≤ 3 | ≤ 3 | 
CN1C[C@@H]2C[C@H]1CN2c1ccc(NC(=O)c2cccc(CNc3ncc(-c4ccnc(N)n4)c4c3CCO4)c2)nc1 [Example 76, 3-(((7-(2-aminopyrimidin-4-yl)-2,3-dihydrofuro[3,2-c]pyridin-4-yl)amino)methyl)-N-(5-((1S,4S)-5-methyl-2,5-diazabicyclo[2.2.1]heptan-2-yl)pyridin-2-yl)benzamide] |  |  | ** (5≤ratio<10) | ≤ 3 | ≤ 3 | 
CN1CC[C@@H]1COc1ccc(NC(=O)c2cccc(CNc3ncc(-c4ccnc(N)n4)c4c3CCO4)c2)nc1 [Example 81, (R)-3-(((7-(2-aminopyrimidin-4-yl)-2,3-dihydrofuro[3,2-c]pyridin-4-yl)amino)methyl)-N-(5-((1-methylazetidin-2-yl)methoxy)pyridin-2-yl)benzamide] | 81.3 ± 7.9 |  |  | ≤ 3 | ≤ 3 | 
C[C@@H]1CN[C@@H](C)CN1c1ccc(NC(=O)c2cccc(CNc3ncc(-c4ccnc(N)n4)c4c3CCO4)c2)nc1 [Example 67] |  |  | *** (ratio≥10) | ≤ 3 | ≤ 3 | 
CNC(=O)c1cccc(CNc2ncc(-c3ccncn3)c3c2CCO3)c1 [Example A, N-Methyl-3-(((7-(pyrimidin-4-yl)-2,3-dihydrofuro[3,2-c]pyridin-4-yl)amino)methyl)benzamide, reference compound] |  |  | ** (5≤ratio<10) | > 30 | > 30 | 
CNC(=O)c1cccc(CNc2ncc(-c3ccnc(N)n3)c3c2OCC3)c1 [Example B, 3-(((4-(2-aminopyrimidin-4-yl)-2,3-dihydrofuro[2,3-c]pyridin-7-yl)amino)methyl)-N-methylbenzamide, reference compound] |  |  | *** (ratio≥10) | > 30 | > 30 | 
